Experimental data reported in article PMC12442639, “A Two‐Protein Chemoreceptor Complex Regulates Oxygen Thresholds in Bacterial Magneto‐Aerotaxis” (Advanced Science, 2025).

Target: T1, CetB2 (His6-CetB2) (Magnetospirillum gryphiswaldense, UniProt A0ACM8ULG3)
T1 construct: N-terminal His6 tag (pET28a), expressed in E. coli Rosetta(DE3) pLysSRARE, Ni-agarose purified; predicted FAD-site residues His54, Asn55, Arg58, Phe67, Trp71, Asn86, Val100, Arg117
Test: LC-MS of purified protein; UV/vis spectroscopy; cyclic voltammetry
Assay type: binding
Details: non-covalently bound, co-purified FAD; UV/vis in 50 mM Na-phosphate pH 8, 300 mM NaCl, 5% glycerol

T1 sequence (A0ACM8ULG3 entry or part of it): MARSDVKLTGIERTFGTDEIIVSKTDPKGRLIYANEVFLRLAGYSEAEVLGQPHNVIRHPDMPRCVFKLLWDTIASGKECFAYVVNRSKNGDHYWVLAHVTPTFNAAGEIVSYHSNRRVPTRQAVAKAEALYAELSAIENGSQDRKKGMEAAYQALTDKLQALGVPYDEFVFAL

Compound: Cc1cc2nc3c(=O)[nH]c(=O)nc-3n(C[C@H](O)[C@H](O)[C@H](O)COP(=O)(O)OP(=O)(O)OC[C@H]3O[C@@H](n4cnc5c(N)ncnc54)[C@H](O)[C@@H]3O)c2cc1C [FAD, flavin adenine dinucleotide]
- LC-MS of purified protein; UV/vis spectroscopy; cyclic voltammetry: indicates that FAD was non‐covalently bound to the protein and released during chromatographic separation
